Columns and labels:
Format in all cases: cell-based
Aβ42 [1] = assay: Screening for γ-secretase-modulating activity, Method 1: Aβ42 sandwich ELISA in supernatant of SKNBE2 cells carrying APP 695 wild type (Tables 12a, 12b); conditions: Table 12b, Method 1, SKNBE2 cells carrying APP 695 wild type, cell supernatant ELISA, averaged IC50 values, percentage of control vs log concentration
Protocol: (§1) Screening was carried out using SKNBE2 cells carrying the APP 695—wild type, grown in Dulbecco's Modified Eagle's Medium/Nutrient mixture F-12 (DMEM/NUT-mix F-12) (HAM) provided by Gibco (cat no. 31330-38) containing 5% Serum/Fe supplemented with 1% non-essential amino acids. Cells were grown to near confluency.
(§2) The screening was performed using the assay as described in Citron et al (1997) Nature Medicine 3: 67. Briefly, cells were plated in a 96-well plate at about 10^5 cells/ml one day prior to addition of compounds. Compounds were added to the cells in Ultraculture (Lonza, BE12-725F) supplemented with 1% glutamine (Invitrogen, 25030-024) for 18 hours. The media were assayed by two sandwich ELISAs, for Aβ42 and Aβtotal. Toxicity of the compounds was assayed by WST-1 cell proliferation reagent (Roche, 1 644 807) according to the manufacturer's protocol.
To quantify the amount of Aβ42 in the cell supernatant, commercially available Enzyme-Linked-Immunosorbent-Assay (ELISA) kits were used (Innotest® β-Amyloid(1-42), Innogenetics N.V., Ghent, Belgium). The Aβ42 ELISA was performed essentially according to the manufacturer's protocol. Briefly, the standards (dilutions of synthetic Aβ1-42) were prepared in polypropylene Eppendorf with final concentrations of 8000 down to 3.9 pg/ml (1/2 dilution step). Samples, standards and blanks (100 μl) were added to the anti-Aβ42-coated plate supplied with the kit (the capture antibody selectively recognizes the C-terminal end of the antigen). The plate was allowed to incubate 3 h at 25° C. in order to allow formation of the antibody-amyloid complex. Following this incubation and subsequent wash steps a selective anti-Aβ-antibody conjugate (biotinylated 3D6) was added and incubated for a minimum of 1 hour in order to allow formation of the antibody-Amyloid-antibody-complex. After incubation and appropriate wash steps, a Streptavidine-Peroxidase-Conjugate was added, followed 30 minutes later by an addition of 3,3′,5,5′-tetramethylbenzidine (TMB)/peroxide mixture, resulting in the conversion of the substrate into a coloured product. This reaction was stopped by the addition of sulfuric acid (0.9 N) and the colour intensity was measured by means of photometry with an ELISA-reader with a 450 nm filter.
(§3) To obtain the values reported in Table 12a, the sigmoidal dose response curves were analysed by computerised curve-fitting, with percent of inhibition plotted against compound concentration. A 4-parameter equation (model 205) in XLfit was used to determine the IC50. The top and the bottom of the curve were fixed to 100 and 0, respectively, and the hill slope was fixed to 1. The IC50 represents the concentration of a compound that is required for inhibiting a biological effect by 50% (Here, it is the concentration where Aβ peptide level is reduced by 50%).
(§4) To obtain the values reported in Table 12b, the data are calculated as percentage of the maximum amount of amyloid Beta 42 measured in the absence of the test compound. The sigmoidal dose response curves were analyzed using non-linear regression analysis with percentage of the control plotted against the log concentration of the compound. A 4-parameter equation was used to determine the IC50. The values reported in Table 12b are averaged IC50 values.

Aβ42 [2] = assay: Screening for γ-secretase-modulating activity, Method 2: Aβ42 Alphalisa in supernatant of SKNBE2 cells carrying APP 695 wild type (Table 12c); conditions: Method 2, Table 12c, incubated overnight
Protocol: as §1, with “Invitrogen” for “Gibco”, “10371-029)” for “31330-38)”, “acids, 1-glutamine 2 mM, Hepes 15 mM, penicillin 50 U/ml (units/ml) en streptomycin 50 μg/ml.” for “acids.”
(§5) The screening was performed using a modification of the assay as described in Citron et al (1997) Nature Medicine 3: 67. Briefly, cells were plated in a 384-well plate at 10^4 cells/well in Ultraculture (Lonza, BE12-725F) supplemented with 1% glutamine (Invitrogen, 25030-024), 1% non-essential amino acid (NEAA), penicillin 50 U/ml en streptomycin 50 μg/ml in the presence of test compound at different test concentrations. The cell/compound mixture was incubated overnight at 37° C., 5% CO2, The next day the media were assayed by two sandwich immuno-assays, for Aβ42 and Aβtotal.
(§6) Aβtotal and Aβ42 concentrations were quantified in the cell supernatant using the Aphalisa technology (Perkin Elmer). Alphalisa is a sandwich assay using biotinylated antibody attached to streptavidin coated donorbeads and antibody conjugated to acceptor beads. In the presence of antigen, the beads come into close proximity. The excitation of the donor beads provokes the release of singlet oxygen molecules that trigger a cascade of energy transfer in the acceptor beads, resulting in light emission. To quantify the amount of Aβ42 in the cell supernatant, monoclonal antibody specific to the C-terminus of Aβ42 (JRF/cAβ42/26) was coupled to the receptor beads and biotinylated antibody specific to the N-terminus of Aβ (JRF/AβN/25) was used to react with the donor beads. To quantify the amount of Aβtotal in the cell supernatant, monoclonal antibody specific to the N-terminus of Aβ (JRF/AβN/25) was coupled to the receptor beads and biotinylated antibody specific to the mid region of Aβ (biotinylated 4G8) was used to react with the donor beads.
as §4, with “12c,” for “12b,”, “IC50.” for “IC50. The values reported in Table 12b are averaged IC50 values.”

Aβtotal [3] = assay: Screening for γ-secretase-modulating activity, Method 2: Aβtotal Alphalisa in supernatant of SKNBE2 cells carrying APP 695 wild type (Table 12c); conditions: Method 2, Table 12c, incubated overnight
Protocol: as §1, with “Invitrogen” for “Gibco”, “10371-029)” for “31330-38)”, “acids, 1-glutamine 2 mM, Hepes 15 mM, penicillin 50 U/ml (units/ml) en streptomycin 50 μg/ml.” for “acids.”
as §5, §6
as §4, with “12c,” for “12b,”, “IC50.” for “IC50. The values reported in Table 12b are averaged IC50 values.”

Aβtotal [4] = assay: Screening for γ-secretase-modulating activity, Method 1: Aβtotal sandwich ELISA in supernatant of SKNBE2 cells carrying APP 695 wild type (Tables 12a, 12b); conditions: Table 12b, Method 1, SKNBE2 cells carrying APP 695 wild type, cell supernatant ELISA, averaged IC50 values
Protocol: as §1, §2
To quantify the amount of Aβtotal in the cell supernatant, samples and standards were added to a 6E10-coated plate. The plate was allowed to incubate overnight at 4° C. in order to allow formation of the antibody-amyloid complex. Following this incubation and subsequent wash steps a selective anti-Aβ-antibody conjugate (biotinylated 4G8) was added and incubated for a minimum of 1 hour in order to allow formation of the antibody-Amyloid-antibody-complex. After incubation and appropriate wash steps, a Streptavidine-Peroxidase-Conjugate was added, followed 30 minutes later by an addition of Quanta Blu fluorogenic peroxidase substrate according to the manufacturer's instructions (Pierce Corp., Rockford, Ill.).
as §3, §4

Row | Structure (SMILES) | IC50 (Aβ42 [1]) [nM] | IC50 (Aβ42 [2]) [nM] | IC50 (Aβtotal [3]) [nM] | IC50 (Aβtotal [4]) [nM] | IC50 (Aβ42 [1]; Homo sapiens) [nM] | IC50 (Aβ42 [2]; Homo sapiens) [nM] | IC50 (Aβtotal [3]; Homo sapiens) [nM] | IC50 (Aβtotal [4]; Homo sapiens) [nM]
1 | COc1cc(Nc2cccn3cc(CC(F)(F)F)nc23)ccc1-n1cnc(C)c1 [Compound 109] | 15 | 60 | > 10000 | > 3020 |  |  |  | 
2 | COc1cc(Nc2nccn3cc(-c4ccc(F)cc4C)nc23)ccc1-n1cnc(C)n1 [Compound 176] |  |  |  |  | 324 | 107 | 8320 | > 10000
3 | COc1cc(Nc2cc(Cl)nn3cc(-c4cc(F)ccc4C)nc23)ccc1-n1cnc(C)c1 [Compound 157] | 102 | 50 | 7410 | > 3020 |  |  |  | 
4 | Cc1cn(-c2ccc(Nc3cccn4cc(C5CCOCC5)nc34)cc2F)cn1 [Compound 118] |  |  |  |  | 331 | 372 | > 10000 | > 3020
5 | CCOC(=O)c1cn2cc(C(F)(F)F)cc(Nc3ccc(-n4cnc(C)c4)c(OC)c3)c2n1 [Compound 155] | 24 | 28 | > 10000 | > 3020 |  |  |  | 
6 | Cc1cn(-c2ccc(Nc3cc(F)cn4cc(C5CCOCC5)nc34)cc2F)cn1 [Compound 149] | 389 | 174 | > 10000 | > 10000 |  |  |  | 
7 | COCc1c(-c2ccccc2Cl)nc2c(Nc3ccc(-n4cnc(C)c4)c(F)c3)cccn12 [Compound 103] | 13 | 19 | > 10000 | > 3020 |  |  |  | 
8 | CC(=O)N(C)Cc1c(-c2ccccc2Cl)nc2c(Nc3ccc(-n4cnc(C)c4)c(F)c3)cccn12 [Compound 102] |  |  |  |  | 10 | 14 | > 10000 | > 3020
9 | COc1nc(Nc2cccn3cc(C)nc23)ccc1-n1cnc(C)c1 [Compound 144] | 100 | 120 | > 10000 | > 3020 |  |  |  | 
10 | COc1cc(Nc2nccn3cc(-c4ccc(F)cc4)nc23)ccc1-n1cnc(C)c1 [Compound 175] | 41 | 72 | 5250 | > 3020 |  |  |  | 
11 | COCCCc1c(-c2ccc(F)cc2)nc2c(Nc3ccc(-n4cnc(C)n4)c(OC)c3)cccn12 [Compound 129] | 46 | 74 | > 10000 | > 10000 |  |  |  | 
12 | COc1cc(Nc2cc(C(F)(F)F)cn3cc(C(C)(C)O)nc23)ccc1-n1cnc(C)c1 [Compound 151] | 513 | 219 | > 10000 | > 3020 |  |  |  | 
13 | Cc1cn(-c2ccc(Nc3cccn4cc(C5CC5)nc34)cc2F)cn1 [Compound 120] |  |  |  |  | 589 | 363 | > 10000 | > 30200
14 | CCOC(=O)c1cn2cccc(Nc3ccc(-n4cnc(C)c4)c(OC)c3)c2n1 [Compound 113] | 38 | 145 | > 10000 | > 3020 |  |  |  | 
15 | COc1cc(Nc2cccn3cc(C4CCOCC4)nc23)ccc1-n1cnc(C)n1 [Compound 136] |  |  |  |  | 676 | 813 | > 10000 | > 30200
16 | COc1cc(Nc2cccn3c(C)c(-c4ccccc4Cl)nc23)ccc1-n1cnc(C)n1 [Compound 124] |  |  |  |  | 11 | 18 | 9120 | > 3020
17 | COc1cc(Nc2cccn3cc(CC4CCOCC4)nc23)ccc1-n1cnc(C)n1 [Compound 137] |  |  |  |  | 1380 | 871 | > 10000 | > 3020
18 | COc1cc(Nc2cccn3cc(-c4cc(C#N)ccc4C)nc23)ccc1-n1cnc(C)n1 [Compound 135] |  |  |  |  | 631 | 102 | > 10000 | > 10000
19 | COCc1c(-c2ccc(F)cc2)nc2c(Nc3ccc(-n4cnc(C)n4)c(OC)c3)cccn12 [Compound 125] | 30 | 51 | 7940 | > 3020 |  |  |  | 
20 | Cc1cn(-c2ccc(Nc3cccn4cc(CC5CCOCC5)nc34)cc2F)cn1 [Compound 115] |  |  |  |  |  | 257 | 8320 | 
21 | Cc1cn(-c2ccc(Nc3cc(C(F)(F)F)nn4cc(C5CCOCC5)nc34)cc2F)cn1 [Compound 168] | 3020 | 380 | 10000 | > 3020 |  |  |  | 
22 | Cc1cn(-c2ccc(Nc3cc(C(F)(F)F)nn4cc(C)nc34)cc2F)cn1 [Compound 173] | > 3020 | > 10000 | > 10000 | > 3020 |  |  |  | 
23 | Cc1cn(-c2ccc(Nc3cccn4cc(C)nc34)cc2F)cn1 [Compound 119] |  |  |  |  | 1660 | 603 | 6170 | > 3020
24 | COc1cc(Nc2cccn3c(CN(C)C)c(-c4ccccc4)nc23)ccc1-n1cnc(C)n1 [Compound 128] |  | 62 | > 10000 |  |  |  |  | 
